Entries after “also recorded” stand apart in the source; their conditions may differ.
How the values were obtained:
Type in all cases: cell-based
[1] = tested on: SHH-induced GLI-luciferase activity in SHH-Light2 cells; test: SHH-Light2 GLI-dependent firefly luciferase reporter assay
Protocol: Shh-Light2 cells were seeded at 70% confluency in 24 wells, 24 hours prior to treatment. They were then cultured for an additional 48 hours in standard serum-containing media prior to analysis. GLI-binding site luciferase activities were measured using the luciferase reporter assay system with the luciferase kit (PROMEGA).
SHH-light2 cells were treated with SHH (600 ng/ml, R&D) alone or in combination with cyclopamine (CYC), analog 33 or analog 37. CYC, analog 33 and analog 37 were used at […].
One screen involved examining the activation of the SHH pathway using the well-established cell line, SHH-Light2 cells. This cell line is a 3T3 clone that stably expresses a GLI-dependant firefly luciferase (Taipale, et al. (2000) Nature 406:1005-1009). […] Concentrations of each analog, ranging from 20 μM to 2.5 μM, were tested. SHH-Light2 cells were seeded 24 hours prior to treatment. They were then cultured for an additional 48 hours in standard serum-containing media prior to analysis. GLI-binding site luciferase activities were measured using a commercially available luciferase reporter assay system.
The activity of analogs 33 and 37 on the SHH signaling pathway was analyzed using the SHH-Light2 cells described herein.

[2] = tested on: granule neuron precursors (GNPs) purified from postnatal mouse cerebella; test: SHH-induced granule neuron precursor (GNP) proliferation, BrdU incorporation; set-up: inhibition of SHH-induced GNP proliferation (percentage BrdU positive): dose or concentration left out as unconfirmed; details: for inhibition of SHH-induced GNP proliferation (BrdU-positive cells): 10 μM, SHH 600 ng/ml, FIG. 2; for inhibition of SHH-induced GNP proliferation (percentage BrdU positive): BrdU 6 hours before fixation, FIG. 5
Protocol: Purified GNPs were either not treated (CTR, n=4) or treated with SHH (600 ng/ml (n=4), alone or in combination with cyclopamine (10 μM, n=4), tomatidine (10 μM, n=4), analog 18 (10 μM, n=4) or estrone 15 (10 μM, n=2). BrdU-positive cells were counted with a fluorescent microscope using a 20× objective, wherein at least ten independent fields for each culture condition were counted per culture condition.
It has previously been shown that SHH is a potent mitogen for granule neuron precursors (GNPs) purified from postnatal mouse cerebella (Dahmane & Ruiz I Altaba (1999) Development 126:3089-3200). This well-established system was used to test the instant steroid-derived cyclopamine analogs for their activity in inhibiting this proliferative response of GNPs to SHH. […] GNPs were purified from postnatal day 5 (P5) mouse cerebella, plated on poly-D-lysine in serum-free DMEM-F12 and treated with either SHH alone or SHH plus the analogs. Treatment with SHH and cyclopamine was used as a control for inhibition.
GNPs were purified from postnatal day 5 (P5) mouse cerebella and treated with either SHH alone, or SHH in combination with cyclopamine, analog 33, or analog 37, each used at […]. BrdU was added to the media 6 hours before fixation. Percentage of brdU positive was determined following counting with a fluorescence microscope using a 20× objective (AXIOSKOP, ZEISS). At least five independent fields for each culture condition were counted. The analysis was performed on three independent experiments. Statistical analysis was performed with the Student t test.

[3] = tested on: human medulloblastoma DAOY cells; test: DAOY cell survival, colorimetric MTT assay; details: 72 hours treatment; FIG. 6
Protocol: DAOY cells were treated for 72 hours with either cyclopamine (CYC), analog 33 or analog 37 before cell survival was assayed with a colorimetric MTT assay. Absorbance at 570 nm is directly proportional to the number of living cells.
Abnormal activation of the SHH signaling pathway has been linked to various cancers including medulloblastoma, a malignancy of the cerebellum with the highest incidence of all human pediatric malignant brain tumors. A subset of these tumors is thought to arise from deregulation of GNP development in the cerebellum and require SHH signaling for their growth. It was therefore tested whether analogs 33 and 37 were also efficient in reducing the viability of medulloblastoma cells using human medulloblastoma DAOY cells.

| SMILES | inhibition of SHH-induced activation of GLI-dependant firefly luciferase ([1]; 2.5 μM, recombinant SHH (200 ng), FIG. 1C) | inhibition of SHH-induced activation of GLI-dependant firefly luciferase ([1]; 5 μM, recombinant SHH (200 ng), FIG. 1B) | inhibition of SHH-induced activation of GLI-dependant firefly luciferase ([1]; 10 μM, recombinant SHH (200 ng), FIG. 1A) | inhibition of SHH-induced GNP proliferation (BrdU-positive cells) [2] | inhibition of SHH signaling activity (GLI-luciferase) ([1]; SHH 600 ng/ml, FIG. 4) | inhibition of SHH-induced GNP proliferation (percentage BrdU positive) [2] | cell survival / viability of DAOY cells (absorbance at 570 nm) [3] | inhibition of SHH-induced reporter activity ([1]; 5 μM, recombinant SHH (200 ng), 48 hours, FIGS. 3 and 4) |
| --- | --- | --- | --- | --- | --- | --- | --- | --- |
| C[C@]12CC[C@@H]3c4ccc(O)cc4CC[C@H]3[C@@H]1CC[C@@]21Cc2ncccc2O1 [compound 18] | inhibited SHH activity comparable to cyclopamine | inhibited SHH activity comparable to cyclopamine | effectively inhibited SHH activity | as potent as cyclopamine |  |  |  |  |
| C[C@]12CC[C@@H]3c4ccc(O)cc4CC[C@H]3[C@@H]1CC[C@@]21C[C@@H]([C@H]2CCCN2)O1 [compound 37] |  |  |  |  | strong inhibition of SHH signaling activity comparable to that of cyclopamine | as potent as cyclopamine; also recorded: blocked | significant decrease of cell survival; also recorded: active in reducing DAOY cells viability |  |
| CC1=C2C[C@H]3[C@@H](CC=C4C[C@@H](O)CC[C@@]43C)[C@@H]2CC[C@]12O[C@@H]1C[C@H](C)CN[C@H]1[C@H]2C [cyclopamine] |  |  |  | significantly decreased cell proliferation |  | blocked | significant decrease of cell survival | largely blocked |
| C[C@H]1CC[C@]2(NC1)O[C@H]1C[C@H]3[C@@H]4CC[C@H]5C[C@@H](O)CC[C@]5(C)[C@H]4CC[C@]3(C)[C@H]1[C@@H]2C [tomatidine, reference compound] |  |  |  | had no effect |  |  |  |  |
